Source: patent publication US20060040884A1, “Antisense oligonucleotides directed to genes regulated by trapoxin-induced HDAC inhibition” (priority 2001, published 2006)
Square brackets hold non-standard residues; d marks the D form. Peptide text beside a SMILES is read from it. ξ: configuration not given here. Aoe(9ξ) = N[C@@H](CCCCCC(=O)C1CO1)C(=O)O; dPip = O=C(O)[C@H]1CCCCN1

Experiments:
RhoB = test: Western/immunoblot detection of RhoB protein in TPX-treated H1299 cells; type: cell-based, human; settings: 30 nM
Procedure: Detection of p21^waf1 and RhoB protein induction in response to trapoxin A treatment. […] Whole lysates are prepared in triple detergent lysis buffer (50 mM Tris, pH 8, 150 mM NaCl, 0.02% NaN3, 0.1% SDS, 1% Nonidet P-40, 0.5% sodium deoxycholate, 100 μg/ml phenylmethylsulfonyl fluoride, 1 μg/ml aprotinin) and proteins are separated by SDS-polyacrylamide electrophoresis, electrophoretically transferred to nitrocellulose membranes, and incubated with anti-p21^waf1 (BD Pharmingen, San Jose, Calif.) or anti-RhoB (Santa Cruz Biotechnologies, Santa Cruz Calif.). Immunoreactive proteins are visualized using ECL chemiluminescence system (Amersham Pharmacia Biotech., Piscataway, N.J.).
H1299 non-small lung carcinoma cells are treated with 30 nM trapoxin A or 0.1% dimethysulphoxide or untreated for 0, 8, 24 and 48 h for RhoB. Whole lysates are prepared in triple detergent lysis buffer (50 mM Tris, pH 8, 150 mM NaCl, 0.02% NaN3, 0.1% SDS, 1% Nonidet P-40, 0.5% sodium deoxycholate, 100 μg/ml phenylmethylsulfonyl fluoride, 1 μg/ml aprotinin) and proteins are separated by SDS-polyacrylamide electrophoresis, electrophoretically transferred to nitrocellulose membranes, and incubated with anti-RhoB (Santa Cruz Biotechnologies, Santa Cruz Calif.). Immunoreactive proteins are visualized using ECL chemiluminescence system (Amersham Pharmacia Biotech., Piscataway, N.J.). […]

H1299 cells = test: Additional microarray analysis of RhoA, RhoB, RhoC expression in TPX-treated H1299 cells; type: cell-based, human; settings: H1299 cells treated with 30 nm TPX
Procedure: Microarray analysis is performed essentially as described in Welsh, J. B. Cancer Res. 61 5974-8 (2001). Poly (A)+ RNA is prepared from H1299 cells treated with TPX or DMSO for 0, 6, and 24 h. RNA is also prepared from 136 transformed cell lines. Labelled cDNA is prepared and hybridized to HU6800 or U95a oligonucleotide arrays (Affymetrix, Santa Clara, Calif.). The arrays are scanned on an Affymetrix confocal scanner and analyzed with GENECHIP 3.1 software (Affymetrix). T-test of the results is done.

O=C(CCCCC[C@@H]1NC(=O)[C@H]2CCCCN2C(=O)[C@H](Cc2ccccc2)NC(=O)[C@H](Cc2ccccc2)NC1=O)C1CO1 (stereo partly shown) [TPX, Trapoxin A] (cyclo(FF[dPip][Aoe(9ξ)]))
RhoB protein level (Western analysis) (RhoB): up-regulated | Expression of RhoA (additional microarray analysis) (H1299 cells): unchanged | Expression of RhoC (additional microarray analysis) (H1299 cells): unchanged | RhoB upregulation (additional microarray analysis) (H1299 cells): approximately 8 fold
